Measured values as given in patent US20100189648A1, “INHIBITORS FOR DISRUPTING THE INTERACTION OF UBIQUITINATION RELATED ENZYMES AND USES THEREOF” (priority 2006, published 2010).
≈ marks a conversion by molar mass, not a printed value. Where two headings read alike, the source gives them in different places.

What was measured:
Assay type in all cases: cell-based, human
U251 = experiment: MTT survival assay, glioma cell line (brain tumor U251); details: U251 (second table)
Experimental: (§1) The effect of the above identified compounds on anti-tumor activity in human carcinoma cells was determined by the MTT survival assay. The MTT assay is a commonly used method in evaluation of cell survival, based on the ability of viable cells to convert MTT (MTT, Sigma, Cat No. 044K5307), a soluble tetrazolium salt [3-(4,5-dimethylthuazole-2-yl)-2,5 diphenyl tetrazolium bromide], into an insoluble formazan precipitate, which is quantitated by spectrophotometry following solubilization in dimethyl sulfoxide (DMSO).
(§2) In brief, different carcinoma cells were treated with negative control, various test articles at different concentration, and positive control (DDP), in 96-well tissue culture dishes. Each test article at different concentration is repeated 3 times.
(§3) Different carcinoma cells were diluted with 10% FBS and RPM1640 or MEM media to a concentration of 3-5×10^4 per ml suspension. 100 microliter of cells were incubated in each well in 96-well tissue culture dishes at 37 C. The cells were incubated at 37 C on the first day. On the second day, media supernatant was removed and replaced with media and different concentration of test articles (100 microliter in each well). Three Negative control wells and three positive control (DDP) wells were also included. The 96-well plate were incubated at 37 C for another 68 hours. After 68 hours, supernatant of each well was removed. 100 microliter of 1 mg/ml MTT diluted in PBS was injected into each well. The cells were incubated at 37 C for another 4 hours. The cells were then solubilized in 150 microliter DMSO, mixed for 10 minutes and absorbance readings were taken using Microplate reader Bio-Rad Model 550 at 570 nm. IR (cell growth inhibition rate) % was calculated as (OD570 of negative control-OD570 with test article)/OD570 of negative control. IC50 (cell 50% inhibition concentration) at 95% confidence level was calculated with Bliss method.

MCF-7 = experiment: MTT survival assay, breast cancer cell line (MCF-7); details: for IC50: Homo sapiens
Experimental: as §1, §2, §3

SMMC-7721 = experiment: MTT survival assay, liver cancer cell line (SMMC-7721); details: SMMC-7721 Experiment #2; for IC50: Homo sapiens
Experimental: as §1, §2, §3

Hela cells = experiment: MTT survival assay, cervical cancer line (Hela cells); details: for IC50: Homo sapiens
Experimental: as §1, §2, §3

A459 = experiment: MTT survival assay, lung cancer cell line (A459); details: A459 Experiment #2; for IC50: Homo sapiens
Experimental: as §1, §2, §3

SKOV3 = experiment: MTT survival assay, ovarian cancer cell line (SKOV3); details: SKOV3 (second table)
Experimental: as §1, §2, §3

[1] = 95% confidence limits of IC50, read-out: IC50 (95% confidence level), interval
[2] = Bliss method, unit not printed (concentrations in μg/ml), read-out: IC50 (95% confidence level)

Q: Cc1ccc(S(=O)(=O)NCC(=O)NCC(c2ccccc2)c2c[nH]c3ccccc23)cc1 (centres unmarked) [Mol 640] was tested. Which IC50 (U251; Homo sapiens, U-251, Bliss method, unit not printed (concentrations in μg/ml), read-out: IC50 (95% confidence level)) did it give?
A: 11.7 µg/mL (≈ 26 µM)

Q: What about the “IR (%)” value (U251; 3.125 μg/ml) of the same molecule?
A: 9.2%

Q: What about the “OD(A570 nm)” value (U251; 3.125 μg/ml) of the same molecule?
A: 0.796 ± 0.055

Q: And the “IR (%)” value (U251; 6.25 μg/ml)?
A: 20.6%

Q: And the “OD(A570 nm)” value (U251; 6.25 μg/ml)?
A: 0.696 ± 0.054

Q: What about the “IR (%)” value (U251; 12.5 μg/ml) of the same molecule?
A: 59.6%

Q: What about the “OD(A570 nm)” value (U251; 12.5 μg/ml) of the same molecule?
A: 0.354 ± 0.021

Q: What about the “IR (%)” value (U251; 25 μg/ml) of the same molecule?
A: 90.3%

Q: And the “OD(A570 nm)” value (U251; 25 μg/ml)?
A: 0.085 ± 0.012

Q: What about the “IR (%)” value (U251; 50 μg/ml) of the same molecule?
A: 90.1%

Q: And the “OD(A570 nm)” value (U251; 50 μg/ml)?
A: 0.087 ± 0.012

Q: And the “IR (%)” value (U251; 100 μg/ml)?
A: 89.7%

Q: What about the “OD(A570 nm)” value (U251; 100 μg/ml) of the same molecule?
A: 0.090 ± 0.014

Q: What about the “IR (%)” value (MCF-7; 3.125 μg/ml) of the same molecule?
A: 10.5%

Q: And the “OD(A570 nm)” value (MCF-7; 3.125 μg/ml)?
A: 0.807 ± 0.016

Q: What about the “IR (%)” value (MCF-7; 6.25 μg/ml) of the same molecule?
A: 21.5%

Q: What about the “OD(A570 nm)” value (MCF-7; 6.25 μg/ml) of the same molecule?
A: 0.708 ± 0.058

Q: What about the “IR (%)” value (MCF-7; 12.5 μg/ml) of the same molecule?
A: 28.1%

Q: What about the “OD(A570 nm)” value (MCF-7; 12.5 μg/ml) of the same molecule?
A: 0.649 ± 0.036

Q: What about the “IR (%)” value (MCF-7; 25 μg/ml) of the same molecule?
A: 89.6%

Q: What about the “OD(A570 nm)” value (MCF-7; 25 μg/ml) of the same molecule?
A: 0.094 ± 0.012

Q: What about the “IR (%)” value (MCF-7; 50 μg/ml) of the same molecule?
A: 89.1%

Q: What about the “OD(A570 nm)” value (MCF-7; 50 μg/ml) of the same molecule?
A: 0.098 ± 0.012

Q: What about the “IR (%)” value (MCF-7; 100 μg/ml) of the same molecule?
A: 92.3%

Q: What about the “OD(A570 nm)” value (MCF-7; 100 μg/ml) of the same molecule?
A: 0.069 ± 0.007

Q: And the IC50 (MCF-7; MCF7, 95% confidence limits of IC50, read-out: IC50 (95% confidence level), interval)?
A: 12.3 to 16.1 µg/mL (≈ 27.6 to 36 µM)

Q: What about the IC50 (MCF-7; MCF7, Bliss method, unit not printed (concentrations in μg/ml), read-out: IC50 (95% confidence level)) of the same molecule?
A: 14.1 µg/mL (≈ 31.5 µM)

Q: And the IC50 (SMMC-7721; [1])?
A: 7.68 to 8.36 µg/mL (≈ 17.2 to 18.7 µM)

Q: And the IC50 (SMMC-7721; [2])?
A: 8.02 µg/mL (≈ 17.9 µM)

Q: What about the “IR (%)” value (SMMC-7721; 3.125 μg/ml) of the same molecule?
A: 53.4%

Q: What about the “OD(A570 nm)” value (SMMC-7721; 3.125 μg/ml) of the same molecule?
A: 0.215 ± 0.008

Q: What about the “IR (%)” value (SMMC-7721; 6.25 μg/ml) of the same molecule?
A: 39.8%

Q: And the “OD(A570 nm)” value (SMMC-7721; 6.25 μg/ml)?
A: 0.278 ± 0.013

Q: And the “IR (%)” value (SMMC-7721; 12.5 μg/ml)?
A: 41.9%

Q: And the “OD(A570 nm)” value (SMMC-7721; 12.5 μg/ml)?
A: 0.268 ± 0.013

Q: And the “IR (%)” value (SMMC-7721; 25 μg/ml)?
A: 56.6%

Q: What about the “OD(A570 nm)” value (SMMC-7721; 25 μg/ml) of the same molecule?
A: 0.200 ± 0.002

Q: What about the “IR (%)” value (SMMC-7721; 50 μg/ml) of the same molecule?
A: 80.2%

Q: And the “OD(A570 nm)” value (SMMC-7721; 50 μg/ml)?
A: 0.091 ± 0.002

Q: What about the “IR (%)” value (SMMC-7721; 100 μg/ml) of the same molecule?
A: 78.7%

Q: What about the “OD(A570 nm)” value (SMMC-7721; 100 μg/ml) of the same molecule?
A: 0.098 ± 0.014

Q: And the “IR (%)” value (Hela cells; 0.41 μg/ml)?
A: 12.3%

Q: What about the “OD(A570 nm)” value (Hela cells; 0.41 μg/ml) of the same molecule?
A: 0.651 ± 0.044

Q: What about the “OD(A570 nm)” value (Hela cells; 1.23 μg/ml) of the same molecule?
A: 0.826 ± 0.101

Q: What about the “OD(A570 nm)” value (Hela cells; 3.70 μg/ml) of the same molecule?
A: 0.819 ± 0.085

Q: What about the “IR (%)” value (Hela cells; 11.11 μg/ml) of the same molecule?
A: 12.2%

Q: What about the “OD(A570 nm)” value (Hela cells; 11.11 μg/ml) of the same molecule?
A: 0.652 ± 0.057

Q: What about the “IR (%)” value (Hela cells; 33.33 μg/ml) of the same molecule?
A: 76.8%

Q: What about the “OD(A570 nm)” value (Hela cells; 33.33 μg/ml) of the same molecule?
A: 0.172 ± 0.010

Q: What about the “IR (%)” value (Hela cells; 100 μg/ml) of the same molecule?
A: 89.5%

Q: And the “OD(A570 nm)” value (Hela cells; 100 μg/ml)?
A: 0.078 ± 0.023

Q: What about the IC50 (Hela cells; [1]) of the same molecule?
A: 21.9 to 29.1 µg/mL (≈ 49 to 65.1 µM)

Q: And the IC50 (Hela cells; [2])?
A: 25.3 µg/mL (≈ 56.4 µM)

Q: And the “IR (%)” value (A459; 3.125 μg/ml)?
A: −22.6%

Q: What about the “OD(A570 nm)” value (A459; 3.125 μg/ml) of the same molecule?
A: 0.781 ± 0.040

Q: And the “IR (%)” value (A459; 6.25 μg/ml)?
A: −12.5%

Q: And the “OD(A570 nm)” value (A459; 6.25 μg/ml)?
A: 0.717 ± 0.020

Q: What about the “IR (%)” value (A459; 12.5 μg/ml) of the same molecule?
A: 6.9%

Q: And the “OD(A570 nm)” value (A459; 12.5 μg/ml)?
A: 0.593 ± 0.034

Q: And the “IR (%)” value (A459; 25 μg/ml)?
A: 63.6%

Q: What about the “OD(A570 nm)” value (A459; 25 μg/ml) of the same molecule?
A: 0.232 ± 0.006

Q: And the “IR (%)” value (A459; 50 μg/ml)?
A: 87.2%

Q: And the “OD(A570 nm)” value (A459; 50 μg/ml)?
A: 0.081 ± 0.010

Q: And the “IR (%)” value (A459; 100 μg/ml)?
A: 87.1%

Q: What about the “OD(A570 nm)” value (A459; 100 μg/ml) of the same molecule?
A: 0.082 ± 0.014

Q: And the IC50 (A459; [1])?
A: 25.5 to 26.1 µg/mL (≈ 57 to 58.4 µM)

Q: What about the IC50 (A459; [2]) of the same molecule?
A: 25.8 µg/mL (≈ 57.7 µM)

Q: And the IC50 (SKOV3; Homo sapiens, SK-OV-3, Bliss method, unit not printed (concentrations in μg/ml), read-out: IC50 (95% confidence level))?
A: 26.9 µg/mL (≈ 60 µM)

Q: What about the “IR (%)” value (SKOV3; 3.125 μg/ml) of the same molecule?
A: 0%

Q: What about the “OD(A570 nm)” value (SKOV3; 3.125 μg/ml) of the same molecule?
A: 0.716 ± 0.048

Q: What about the “IR (%)” value (SKOV3; 6.25 μg/ml) of the same molecule?
A: 10.3%

Q: And the “OD(A570 nm)” value (SKOV3; 6.25 μg/ml)?
A: 0.628 ± 0.025

Q: And the “IR (%)” value (SKOV3; 12.5 μg/ml)?
A: 9.7%

Q: And the “OD(A570 nm)” value (SKOV3; 12.5 μg/ml)?
A: 0.632 ± 0.020

Q: What about the “IR (%)” value (SKOV3; 25 μg/ml) of the same molecule?
A: 43.8%

Q: What about the “OD(A570 nm)” value (SKOV3; 25 μg/ml) of the same molecule?
A: 0.394 ± 0.037

Q: What about the “IR (%)” value (SKOV3; 50 μg/ml) of the same molecule?
A: 88.3%

Q: And the “OD(A570 nm)” value (SKOV3; 50 μg/ml)?
A: 0.082 ± 0.008

Q: And the “IR (%)” value (SKOV3; 100 μg/ml)?
A: 88.7%

Q: What about the “OD(A570 nm)” value (SKOV3; 100 μg/ml) of the same molecule?
A: 0.079 ± 0.010
